In ChEMBL document CHEMBL1201862, “PubChem BioAssay data set” (2004):
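All cell lines were grown in 96-well plates and treated with compound for 48 hours. GI50 is the concentration that inhibits growth by half.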 Activity calls are given as the source filed them. Rule as the data show it: active = GI50 up to about 1.1 µM and inactive = higher.

Experiments:
Experiment in all cases: DTP human tumour cell line panel, 48 h
KM12 = system: KM12
T47D = system: T47D
EKVX = system: EKVX
UACC-257 = system: UACC-257
DU-145 = system: DU-145
U-251 = system: U-251
786-0 = system: 786-0
SNB-75 = system: SNB-75
SK-MEL-5 = system: SK-MEL-5
M14 = system: M14
HCT-116 = system: HCT-116
Hs-578T = system: Hs-578T
MDA-MB-435 = system: MDA-MB-435
K562 = system: K562
MOLT-4 = system: MOLT-4
IGROV-1 = system: IGROV-1
TK-10 = system: TK-10
NCI-H460 = system: NCI-H460
LOX IMVI = system: LOX IMVI
A498 = system: A498

Measured: GI50

COc1cc(/C=C2/CCCc3ccccc3C2=O)cc(OC)c1OC
inactive: KM12 11.7 µM | T47D 5.92 µM | EKVX 17.6 µM | UACC-257 12.9 µM | DU-145 11.9 µM | U-251 15.5 µM | 786-0 18.3 µM | SNB-75 12.4 µM | SK-MEL-5 3.27 µM | M14 18.7 µM | HCT-116 6.65 µM | Hs-578T 18.2 µM | MDA-MB-435 7.85 µM | K562 2.65 µM | MOLT-4 3.46 µM | IGROV-1 28.9 µM | TK-10 22.5 µM | NCI-H460 20.8 µM | LOX IMVI 15.4 µM | A498 7.89 µM

C/C(=N\Nc1cc(CN2CCCC2)c(-c2ccc(Cl)cc2)nn1)C(=O)O
inactive: KM12 > 100 µM | T47D > 100 µM | EKVX > 100 µM | UACC-257 > 100 µM | DU-145 > 100 µM | U-251 > 100 µM | 786-0 > 100 µM | SNB-75 > 100 µM | SK-MEL-5 > 100 µM | M14 > 100 µM | HCT-116 > 100 µM | Hs-578T > 100 µM | MDA-MB-435 > 100 µM | K562 > 100 µM | MOLT-4 > 100 µM | IGROV-1 > 100 µM | TK-10 > 100 µM | NCI-H460 > 100 µM | LOX IMVI > 100 µM | A498 > 100 µM

O=c1ccc(=O)c2c1c1[nH]c3ccccc3c1c1c(=O)c3ccccc3c(=O)c21
inactive: KM12 > 10 µM | T47D > 10 µM | EKVX > 10 µM | UACC-257 > 10 µM | DU-145 > 10 µM | U-251 > 10 µM | 786-0 > 10 µM | SNB-75 > 10 µM | SK-MEL-5 > 10 µM | M14 > 10 µM | HCT-116 > 10 µM | Hs-578T > 10 µM | MDA-MB-435 > 10 µM | K562 5.32 µM | MOLT-4 3.24 µM | IGROV-1 > 10 µM | TK-10 4.92 µM | NCI-H460 > 10 µM | LOX IMVI > 10 µM | A498 > 10 µM

COc1cc(C2SC(=N)Nc3c2c(C)nn3C(=O)Cc2ccccc2)cc(OC)c1OC (stereo not drawn)
inactive: KM12 > 100 µM | T47D > 100 µM | EKVX > 100 µM | UACC-257 > 100 µM | DU-145 > 100 µM | 786-0 > 100 µM | SNB-75 28.4 µM | SK-MEL-5 > 100 µM | M14 > 100 µM | HCT-116 > 100 µM | Hs-578T > 100 µM | MDA-MB-435 > 100 µM | K562 > 100 µM | MOLT-4 > 100 µM | IGROV-1 > 100 µM | TK-10 > 100 µM | NCI-H460 > 100 µM | LOX IMVI > 100 µM | A498 > 100 µM

COC/C=C\[C@]1(O)CCCC[C@@H]1CC(OC)OC
inactive: KM12 > 100 µM | T47D > 100 µM | EKVX > 100 µM | UACC-257 > 100 µM | DU-145 > 100 µM | U-251 > 100 µM | 786-0 > 100 µM | SNB-75 > 100 µM | SK-MEL-5 > 100 µM | M14 > 100 µM | Hs-578T > 100 µM | MDA-MB-435 > 100 µM | K562 43.5 µM | MOLT-4 23.4 µM | IGROV-1 > 100 µM | TK-10 > 100 µM | NCI-H460 > 100 µM | LOX IMVI > 100 µM | A498 > 100 µM

O=c1cc(N2CCCC2)[nH]c(=O)n1-c1ccc(Cl)cc1
inactive: KM12 > 100 µM | T47D > 100 µM | EKVX > 100 µM | UACC-257 > 100 µM | DU-145 > 100 µM | U-251 > 100 µM | 786-0 > 100 µM | SNB-75 > 100 µM | M14 > 100 µM | HCT-116 > 100 µM | Hs-578T > 100 µM | MDA-MB-435 > 100 µM | K562 > 100 µM | MOLT-4 > 100 µM | IGROV-1 > 100 µM | TK-10 > 100 µM | NCI-H460 > 100 µM | LOX IMVI > 100 µM | A498 > 100 µM

COc1ccc(-c2cc(=O)c3c(OC)c(OC)c(OC)c(OC)c3o2)c(OC)c1
inactive: T47D 8.65 µM | EKVX 29.2 µM | UACC-257 20 µM | DU-145 30.4 µM | U-251 30.8 µM | 786-0 32.3 µM | SNB-75 15.6 µM | SK-MEL-5 16 µM | M14 21 µM | HCT-116 21.6 µM | Hs-578T 18 µM | MDA-MB-435 24.6 µM | K562 48.4 µM | MOLT-4 26.4 µM | IGROV-1 36.9 µM | TK-10 37.2 µM | NCI-H460 32.1 µM | LOX IMVI 17.2 µM | A498 21.6 µM

C/C(Nc1ccc(F)cc1)=C1/CCOC1=O
inactive: KM12 1.38 µM | T47D 63.2 µM | EKVX > 100 µM | UACC-257 > 100 µM | DU-145 > 100 µM | U-251 > 100 µM | 786-0 > 100 µM | SNB-75 > 100 µM | SK-MEL-5 12.9 µM | HCT-116 > 100 µM | Hs-578T > 100 µM | MDA-MB-435 2.92 µM | K562 62.8 µM | MOLT-4 24.5 µM | IGROV-1 > 100 µM | TK-10 > 100 µM | NCI-H460 > 100 µM | LOX IMVI 2.25 µM | A498 > 100 µM

COC(=O)C1(Cc2ccccc2)Cc2ccccc2C1O (stereo not drawn)
inactive: KM12 > 100 µM | T47D 43.3 µM | EKVX 65 µM | UACC-257 > 100 µM | DU-145 > 100 µM | U-251 > 100 µM | 786-0 > 100 µM | SNB-75 87.7 µM | SK-MEL-5 37.3 µM | HCT-116 > 100 µM | Hs-578T 55.1 µM | MDA-MB-435 > 100 µM | K562 > 100 µM | MOLT-4 39.4 µM | IGROV-1 > 100 µM | TK-10 95.9 µM | NCI-H460 > 100 µM | LOX IMVI > 100 µM | A498 > 100 µM

CC(C)=CCOc1cc(NC(=S)c2ccsc2C)ccc1Cl
inactive: KM12 > 100 µM | T47D 1.64 µM | EKVX 56.8 µM | UACC-257 88.1 µM | DU-145 75.9 µM | U-251 20.7 µM | 786-0 40.2 µM | SNB-75 14.1 µM | SK-MEL-5 36.1 µM | HCT-116 26.4 µM | Hs-578T 12.3 µM | MDA-MB-435 > 100 µM | K562 7.48 µM | MOLT-4 20.2 µM | IGROV-1 4.43 µM | TK-10 93.5 µM | NCI-H460 12.4 µM | LOX IMVI 30.7 µM | A498 27.3 µM
